Legend:
Assay type in all cases: in vivo
barnyardgrass [1] = assay: Test Example 1: herbicidal effects in preemergence treatment under submerged conditions; settings: dose 2.52 g/a
Summary of the method: (§1)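 Flooded-paddy preemergence assay; EC diluted with water, surface-applied at weed seeding; doses g/a; rice transplanted at 2.5 leaves; 0–5 mortality score after 3 weeks.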

bulrush [2] = assay: as above; settings: dose 2.52 g/a
Summary of the method: as §1

ducksalad [3] = assay: as above; settings: dose 2.52 g/a
Summary of the method: as §1

transplanted rice = assay: Test Example 1: preemergence treatment under submerged conditions, effect on crop; settings: dose 2.52 g/a
Summary of the method: as §1

barnyardgrass [4] = assay: Test Example 2: herbicidal effects during the vegetation period under submerged conditions; settings: treatment during the vegetation period under submerged conditions; dose 2.52 g/a
Summary of the method: (§2)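 Barnyardgrass, bulrush and ducksalad were co-sown in alluvial soil flooded to 4 cm and grown in a greenhouse at 25 to 30° C. At the 1- or 2-leaf stage, water-diluted emulsifiable concentrates went onto the water surface at set doses (g/a). Herbicidal effect was scored three weeks later on a graded scale.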

bulrush [5] = assay: as above; settings: treatment during the vegetation period under submerged conditions; dose 2.52 g/a
Summary of the method: as §2

ducksalad [6] = assay: as above; settings: treatment during the vegetation period under submerged conditions; dose 2.52 g/a
Summary of the method: as §2

Italian ryegrass [7] = assay: Test Example 3: herbicidal effects in soil treatment; settings: dose 3.2 g/a
Summary of the method: (§3)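 Seeds were sown in sterilized diluvial soil and covered with about 1.5 cm of soil. Compounds, formulated as emulsifiable concentrates and diluted with water, were sprayed evenly over the soil surface at set doses in g/a. Herbicidal effect was scored on a rating scale three weeks later.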

barnyardgrass [8] = assay: as above; settings: dose 3.2 g/a
Summary of the method: as §3

beadstraw = assay: as above; settings: dose 3.2 g/a
Summary of the method: as §3

common chickweed [9] = assay: as above; settings: dose 3.2 g/a
Summary of the method: as §3

common lambsquater [10] = assay: as above; settings: dose 3.2 g/a
Summary of the method: as §3

common ragweed [11] = assay: as above; settings: dose 3.2 g/a
Summary of the method: as §3

giant foxtail [12] = assay: as above; settings: dose 3.2 g/a
Summary of the method: as §3

large crabgrass [13] = assay: as above; settings: dose 3.2 g/a
Summary of the method: as §3

posumbu knotweed [14] = assay: as above; settings: dose 3.2 g/a
Summary of the method: as §3

redroot pigweed [15] = assay: as above; settings: dose 3.2 g/a
Summary of the method: as §3

velvetleaf [16] = assay: as above; settings: dose 3.2 g/a
Summary of the method: as §3

water foxtail [17] = assay: as above; settings: dose 3.2 g/a
Summary of the method: as §3

Italian ryegrass [18] = assay: Test Example 4: herbicidal effect in foliage treatment; settings: dose 3.2 g/a
Summary of the method: (§4)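 Sowing in sterilized diluvial soil, ~1.5 cm cover; growth 14 d, 25–30° C greenhouse; foliar spray of water-diluted EC at predetermined g/a; scoring 3 wk later on graded scale.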

barnyardgrass [19] = assay: as above; settings: dose 3.2 g/a
Summary of the method: as §4

common chickweed [20] = assay: as above; settings: dose 3.2 g/a
Summary of the method: as §4

common lambsquater [21] = assay: as above; settings: dose 3.2 g/a
Summary of the method: as §4

common ragweed [22] = assay: as above; settings: dose 3.2 g/a
Summary of the method: as §4

giant foxtail [23] = assay: as above; settings: dose 3.2 g/a
Summary of the method: as §4

large crabgrass [24] = assay: as above; settings: dose 3.2 g/a
Summary of the method: as §4

posumbu knotweed [25] = assay: as above; settings: dose 3.2 g/a
Summary of the method: as §4

redroot pigweed [26] = assay: as above; settings: dose 3.2 g/a
Summary of the method: as §4

velvetleaf [27] = assay: as above; settings: dose 3.2 g/a
Summary of the method: as §4

water foxtail [28] = assay: as above; settings: dose 3.2 g/a
Summary of the method: as §4

[29] = three weeks after the application

| Structure (SMILES) | A: barnyardgrass, herbicidal effect (evaluation scale 0-5) (barnyardgrass [1]) | B: bulrush, herbicidal effect (evaluation scale 0-5) (bulrush [2]) | C: ducksalad, herbicidal effect (evaluation scale 0-5) (ducksalad [3]) | a: transplanted rice, effect on crop (evaluation scale 0-5) (transplanted rice) | A: barnyardgrass, herbicidal effect (evaluation scale 0-5) (barnyardgrass [4]) | B: bulrush, herbicidal effect (evaluation scale 0-5) (bulrush [5]) | C: ducksalad, herbicidal effect (evaluation scale 0-5) (ducksalad [6]) | H: Italian ryegrass, herbicidal effect (evaluation scale 0-5) (Italian ryegrass [7]) | A: barnyardgrass, herbicidal effect (evaluation scale 0-5) (barnyardgrass [8]) | O: beadstraw, herbicidal effect (evaluation scale 0-5) (beadstraw) | N: common chickweed, herbicidal effect (evaluation scale 0-5) (common chickweed [9]) | L: common lambsquater, herbicidal effect (evaluation scale 0-5) (common lambsquater [10]) | J: common ragweed, herbicidal effect (evaluation scale 0-5) (common ragweed [11]) | E: giant foxtail, herbicidal effect (evaluation scale 0-5) (giant foxtail [12]) | D: large crabgrass, herbicidal effect (evaluation scale 0-5) (large crabgrass [13]) | M: posumbu knotweed, herbicidal effect (evaluation scale 0-5) (posumbu knotweed [14]) | K: redroot pigweed, herbicidal effect (evaluation scale 0-5) (redroot pigweed [15]) | I: velvetleaf, herbicidal effect (evaluation scale 0-5) (velvetleaf [16]) | G: water foxtail, herbicidal effect (evaluation scale 0-5) (water foxtail [17]) | other results |
| --- | --- | --- | --- | --- | --- | --- | --- | --- | --- | --- | --- | --- | --- | --- | --- | --- | --- | --- | --- | --- |
| O=C1CC2(CCCC2)OCN1Cc1ccccc1NS(=O)(=O)C(F)(F)F [II-64] | 5 (mortality of 90% or above (nearly complete death)) | 5 (mortality of 90% or above (nearly complete death)) | 5 (mortality of 90% or above (nearly complete death)) | 0 (mortality of less than 5% (almost ineffective)) | 5 (mortality of 90% or above (nearly complete death)) | 5 (mortality of 90% or above (nearly complete death)) | 5 (mortality of 90% or above (nearly complete death)) | 5 (mortality of 90% or above (nearly complete death)) | 5 (mortality of 90% or above (nearly complete death)) | 4 (mortality of at least 70% and less than 90%) | 4 (mortality of at least 70% and less than 90%) | 5 (mortality of 90% or above (nearly complete death)) | 4 (mortality of at least 70% and less than 90%) | 5 (mortality of 90% or above (nearly complete death)) | 5 (mortality of 90% or above (nearly complete death)) | 5 (mortality of 90% or above (nearly complete death)) | 4 (mortality of at least 70% and less than 90%) | 3 (mortality of at least 40% and less than 70%) | 5 (mortality of 90% or above (nearly complete death)) | H: Italian ryegrass, herbicidal effect (Italian ryegrass [18]; three weeks after application): 3 (mortality of at least 40% and less than 70%); A: barnyardgrass, herbicidal effect (barnyardgrass [19]; three weeks after application): 4 (mortality of at least 70% and less than 90%); N: common chickweed, herbicidal effect (common chickweed [20]; three weeks after application): 4 (mortality of at least 70% and less than 90%); L: common lambsquater, herbicidal effect (common lambsquater [21]; three weeks after application): 2 (mortality of at least 20% and less than 40%); J: common ragweed, herbicidal effect (common ragweed [22]; three weeks after application): 3 (mortality of at least 40% and less than 70%); E: giant foxtail, herbicidal effect (giant foxtail [23]; three weeks after application): 4 (mortality of at least 70% and less than 90%); D: large crabgrass, herbicidal effect (large crabgrass [24]; three weeks after application): 4 (mortality of at least 70% and less than 90%); M: posumbu knotweed, herbicidal effect (posumbu knotweed [25]; three weeks after application): 3 (mortality of at least 40% and less than 70%); K: redroot pigweed, herbicidal effect (redroot pigweed [26]; three weeks after application): 0 (mortality of less than 5% (almost ineffective)); I: velvetleaf, herbicidal effect (velvetleaf [27]; three weeks after application): 1 (mortality of at least 5% and less than 20%); G: water foxtail, herbicidal effect (water foxtail [28]; three weeks after application): 5 (mortality of 90% or above (nearly complete death)) |
| CCOC(=O)N(c1ccccc1CN1C(=O)CC(C)(C)OC1C)S(=O)(=O)C(F)(F)F (stereo not drawn) [II-74] | 5 (mortality of 90% or above (nearly complete death)) | 5 (mortality of 90% or above (nearly complete death)) | 5 (mortality of 90% or above (nearly complete death)) | 3 (mortality of at least 40% and less than 70%) | 5 (mortality of 90% or above (nearly complete death)) | 5 (mortality of 90% or above (nearly complete death)) | 5 (mortality of 90% or above (nearly complete death)) | 4 (mortality of at least 70% and less than 90%) | 5 (mortality of 90% or above (nearly complete death)) | 4 (mortality of at least 70% and less than 90%) | 3 (mortality of at least 40% and less than 70%) | 1 (mortality of at least 5% and less than 20%) | 2 (mortality of at least 20% and less than 40%) | 5 (mortality of 90% or above (nearly complete death)) | 5 (mortality of 90% or above (nearly complete death)) | 5 (mortality of 90% or above (nearly complete death)) | 0 (mortality of less than 5% (almost ineffective)) | 5 (mortality of 90% or above (nearly complete death)) | 5 (mortality of 90% or above (nearly complete death)) | H: Italian ryegrass, herbicidal effect (Italian ryegrass [18]; [29]): 5 (mortality of 90% or above (nearly complete death)); A: barnyardgrass, herbicidal effect (barnyardgrass [19]; [29]): 5 (mortality of 90% or above (nearly complete death)); N: common chickweed, herbicidal effect (common chickweed [20]; [29]): 4 (mortality of at least 70% and less than 90%); L: common lambsquater, herbicidal effect (common lambsquater [21]; [29]): 3 (mortality of at least 40% and less than 70%); J: common ragweed, herbicidal effect (common ragweed [22]; [29]): 3 (mortality of at least 40% and less than 70%); E: giant foxtail, herbicidal effect (giant foxtail [23]; [29]): 3 (mortality of at least 40% and less than 70%); D: large crabgrass, herbicidal effect (large crabgrass [24]; [29]): 5 (mortality of 90% or above (nearly complete death)); M: posumbu knotweed, herbicidal effect (posumbu knotweed [25]; [29]): 4 (mortality of at least 70% and less than 90%); K: redroot pigweed, herbicidal effect (redroot pigweed [26]; [29]): 0 (mortality of less than 5% (almost ineffective)); I: velvetleaf, herbicidal effect (velvetleaf [27]; [29]): 5 (mortality of 90% or above (nearly complete death)); G: water foxtail, herbicidal effect (water foxtail [28]; [29]): 5 (mortality of 90% or above (nearly complete death)) |

From patent US20120029187A1, “HALOALKYLSULFONANILIDE DERIVATIVE” (Nissan Chemical Industries, Ltd., priority 2009, published 2012)
